From US8987314B2, “Amide, urea or sulfone amide linked benzothiazole inhibitors of endothelial lipase” (Bristol-Myers Squibb Company, priority 2012, dated 2015)

Legend:
[1] = target: Endothelial lipase (EL) (Homo sapiens (Human), UniProt Q9Y5X9); experiment: EL assay: endothelial lipase activity with fluorescent substrate A10070 in DMPG vesicles; format: biochemical
Outline: (§1)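 EL from conditioned medium of HT-1080 cells engineered to overexpress endogenous EL; HL partially purified from conditioned medium of HL-overexpressing COS cells. Enzyme preincubated with compound 30 min at 37° C in 50 mM HEPES pH 8.0, 50 mM NaCl, 1 mM CaCl2; DMPG vesicles carrying FRET substrate (0.11 mole fraction) then added.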

[2] = target: hepatic lipase (HL) (Homo sapiens (Human), UniProt P11150); experiment: HL assay: hepatic lipase activity with fluorescent substrate A10070 in DMPG vesicles; format: biochemical
Outline: as §1

Sequence of hepatic lipase (HL) (P11150 23-499, species assumed): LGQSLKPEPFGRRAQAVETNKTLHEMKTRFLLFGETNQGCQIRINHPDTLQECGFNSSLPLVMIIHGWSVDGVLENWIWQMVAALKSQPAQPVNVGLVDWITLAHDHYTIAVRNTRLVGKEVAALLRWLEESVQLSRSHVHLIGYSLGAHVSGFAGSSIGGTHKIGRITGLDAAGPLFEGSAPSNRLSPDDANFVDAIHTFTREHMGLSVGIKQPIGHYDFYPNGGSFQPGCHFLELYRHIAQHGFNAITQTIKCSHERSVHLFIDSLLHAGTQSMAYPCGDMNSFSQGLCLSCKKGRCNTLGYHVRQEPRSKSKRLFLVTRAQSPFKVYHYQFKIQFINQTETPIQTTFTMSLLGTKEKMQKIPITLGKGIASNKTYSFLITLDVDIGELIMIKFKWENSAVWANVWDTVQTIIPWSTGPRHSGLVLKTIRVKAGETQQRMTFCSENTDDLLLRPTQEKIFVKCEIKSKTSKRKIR
Sequence of Endothelial lipase (EL) (Q9Y5X9 21-500): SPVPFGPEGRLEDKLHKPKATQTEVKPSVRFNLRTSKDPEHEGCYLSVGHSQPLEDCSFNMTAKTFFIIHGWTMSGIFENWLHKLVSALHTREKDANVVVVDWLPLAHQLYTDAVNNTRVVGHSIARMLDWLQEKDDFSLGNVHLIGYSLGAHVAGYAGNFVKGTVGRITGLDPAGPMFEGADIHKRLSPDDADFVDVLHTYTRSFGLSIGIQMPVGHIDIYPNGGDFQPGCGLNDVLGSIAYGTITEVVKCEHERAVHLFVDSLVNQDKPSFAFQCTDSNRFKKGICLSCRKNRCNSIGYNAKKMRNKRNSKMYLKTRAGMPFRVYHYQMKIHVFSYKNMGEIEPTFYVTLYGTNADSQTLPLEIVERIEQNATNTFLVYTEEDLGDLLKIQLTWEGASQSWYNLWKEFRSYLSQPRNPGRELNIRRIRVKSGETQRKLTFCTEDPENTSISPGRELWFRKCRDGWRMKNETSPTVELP

Row | SMILES | IC50 [1] | IC50 [2]
1 | CC(C)S(=O)(=O)C(C(=O)NCCS(N)(=O)=O)c1nc2cc(C(F)(F)F)c(-c3ccc(C(=O)N4CCOCC4)cc3)cc2s1 (stereo not drawn) [Example B268, 2-{6-[4-(morpholine-4-carbonyl)phenyl]-5-(trifluoromethyl)-1,3-benzothiazol-2-yl}-2-(propane-2-sulfonyl)-N-(2-sulfamoylethyl)acetamide] | 9.2 nM | 406 nM
2 | COCCNC(=O)c1ccc(-c2ccc3nc(C(C(=O)NCCS(N)(=O)=O)S(=O)(=O)Cc4ccc(C(F)(F)F)cc4)sc3c2)cc1 (stereo not drawn) [Example B116, N-(2-methoxyethyl)-4-(2-(2-oxo-2-((2-sulfamoyl-ethyl)amino)-1-((4-(trifluoromethyl)benzyl)sul-fonyl)ethyl)-1,3-benzothiazol-6-yl)ben-zamide] | < 10 nM | 182 nM
3 | NS(=O)(=O)CCNC(=O)C(c1nc2ccc(-c3cnn(CCN4CCOCC4)c3)cc2s1)S(=O)(=O)Cc1ccc(F)cc1 (stereo not drawn) [Example B75, 2-((4-fluorobenzyl)sul-fonyl)-2-(6-(1-(2-(4-morpholinyl)ethyl)-1H-pyrazol-4-yl)-1,3-benzothiazol-2-yl)-N-(2-sulfamoylethyl)acetamide] | < 10 nM | 25000 nM
4 | NS(=O)(=O)CCNC(=O)C(c1nc2ccc(-c3ccc(C(=O)N4CCOCC4)cc3)cc2s1)S(=O)(=O)Cc1ccc(Cl)c(Cl)c1 (stereo not drawn) [Example B297, 2-[(3,4-dichlorophen-yl)methanesulfonyl]-2-{6-[4-(morpholine-4-carbon-yl)phenyl]-1,3-benzothiazol-2-yl}-N-(2-sulfamoylethyl)a-cetamide] | 5.3 nM | 556 nM
5 | CN(C)C(=O)c1ccc(-c2ccc3nc(C(C(=O)NCCS(N)(=O)=O)S(=O)(=O)Cc4ccc(OC(F)(F)F)cc4)sc3c2)cc1F (stereo not drawn) [Example B229, 2-fluoro-N,N-dimethyl-4-(2-{[(2-sulfamoylethyl)car-bamoyl][4-(trifluoro-methoxy)phenyl]methane-sulfonylmethyl}-1,3-benzothiazol-6-yl)ben-zamide] | 29.2 nM | 242 nM
6 | NS(=O)(=O)CCNC(=O)C(c1nc2cc(F)c(-c3ccccc3)cc2s1)S(=O)(=O)CCNC(=O)OCc1ccccc1 (stereo not drawn) [Example B135, benzyl (2-((1-(5-fluoro-6-phenyl-1,3-benzothiazol-2-yl)-2-oxo-2-((2-sulfamoyl-ethyl)amino)ethyl)sul-fonyl)ethyl)carbamate] | < 10 nM | 56 nM
7 | CS(=O)(=O)C(C(=O)NCCS(N)(=O)=O)c1nc2cc(-c3ccc(F)nc3)ccc2s1 (stereo not drawn) [Example B372, 2-[5-(6-fluoropyridin-3-yl)-1,3-benzothiazol-2-yl]-2-methanesulfonyl-N-(2-sulfamoylethyl)acetamide] | 2.5 nM | 124 nM
8 | COCCS(=O)(=O)C(C(=O)NCc1nnc(C)o1)c1nc2cc(F)c(-c3ccccc3)cc2s1 (stereo not drawn) [Example B155, 2-(5-fluoro-6-phenyl-1,3-benzothiazol-2-yl)-2-[(2-methoxyethyl)sulfonyl]-N-[(5-methyl-1,3,4-oxadiazol-2-yl)methyl]acetamide] | < 10 nM | < 10 nM
9 | NS(=O)(=O)CCNC(=O)C(c1nc2ccc(-c3ccnc(F)c3)cc2s1)S(=O)(=O)Cc1ccccc1 (stereo not drawn) [Example B126, 2-(benzylsulfonyl)-2-(6-(2-fluoro-4-pyridinyl)-1,3-benzothiazol-2-yl)-N-(2-sulfamoylethyl)acetamide] | < 10 nM | 51 nM
10 | Cc1nnc(CNC(=O)C(c2nc3cc(F)c(-c4ccccc4)cc3s2)S(=O)(=O)Cc2ccccc2)o1 (stereo not drawn) [Example B153, 2-(benzylsulfonyl)-2-(5-fluoro-6-phenyl-1,3-benzothiazol-2-yl)-N-((5-methyl-1,3,4-oxadiazol-2-yl)methyl)acetamide] | < 10 nM | 39 nM
11 | CS(=O)(=O)C(C(=O)NCCS(N)(=O)=O)c1nc2ccc(-c3cnn(CCC(F)(F)F)c3)cc2s1 (stereo not drawn) [Example B221, 2-methanesulfonyl-N-(2-sulfamoylethyl)-2-{6-[1-(3,3,3-trifluoropropyl)-1H-pyrazol-4-yl]-1,3-benzothiazol-2-yl}acetamide] | 78.1 nM | 308 nM
12 | COCCNC(=O)c1ccc(-c2ccc3nc(C(C(=O)NCCS(N)(=O)=O)S(C)(=O)=O)sc3c2)cc1 (stereo not drawn) [Example B35, N-(2-methoxyethyl)-4-(2-{1-(methylsulfonyl)-2-oxo-2-[(2-sulfamoylethyl)a-mino]ethyl}-1,3-benzothiazol-6-yl)ben-zamide] | < 10 nM | 43 nM
13 | NS(=O)(=O)CCNC(=O)C(c1nc2ccc(-c3ccc(C(=O)NCC(F)(F)F)cc3)cc2s1)S(=O)(=O)Cc1ccc(F)cc1 (stereo not drawn) [Example B65, 4-(2-(1-((4-fluorobenzyl)sul-fonyl)-2-oxo-2-((2-sulfamoylethyl)amino)ethyl)-1,3-benzothiazol-6-yl)-N-(2,2,2-trifluoroethyl)ben-zamide] | < 10 nM | 61 nM
14 | COc1ccc(-c2cc3sc(C(C(=O)NCc4nnc(C)o4)S(=O)(=O)Cc4ccccc4)nc3cc2C)cn1 (stereo not drawn) [Example B97, 2-(benzylsulfonyl)-2-(6-(6-methoxy-3-pyridinyl)-5-methyl-1,3-benzothiazol-2-yl)-N-((5-methyl-1,3,4-oxadiazol-2-yl)methyl)a-cetamide] | 24 nM | 57 nM
15 | CS(=O)(=O)C(C(=O)NCCS(N)(=O)=O)c1nc2ccc(-c3ccc(CCO)cc3)cc2s1 (stereo not drawn) [Example B47, 2-(6-(4-(2-hydroxyethyl)phenyl)-1,3-benzothiazol-2-yl)-2-(methylsulfonyl)-N-(2-sulfamoylethyl)acetamide] | < 10 nM | 35 nM
